{
  "source": "ChEMBL document CHEMBL2203080",
  "about": "“Synthesis and biological evaluation of colchicine C-ring analogues tethered with aliphatic linkers suitable for prodrug derivatisation” (Bioorg Med Chem Lett, 2012)",
  "key": {"HeLa [1]": {"system": "HeLa", "assay": "Cytotoxicity against human HeLa cells assessed as growth inhibition", "type": "functional, cell-based"}, "DLD-1": {"system": "DLD-1", "assay": "Cytotoxicity against human DLD1 cells assessed as growth inhibition", "type": "functional, cell-based"}, "HeLa [2]": {"system": "HeLa", "assay": "Cytotoxicity against human HeLa cells harboring class 3 beta tubulin mutant assessed as growth inhibition", "type": "functional, cell-based"}, "A2780 [3]": {"system": "A2780", "assay": "Resistance factor, ratio of IC50 for multidrug-resistant human A2780AD cells overexpressing p-gp to IC50 for human A2780 cells", "type": "functional"}, "[4]": {"assay": "Cytotoxicity against multidrug-resistant human A2780AD cells overexpressing p-gp assessed as growth inhibition", "type": "functional, cell-based", "details": "A2780 ADR"}, "A2780 [5]": {"system": "A2780", "assay": "Cytotoxicity against human A2780 cells assessed as growth inhibition", "type": "functional, cell-based"}, "HeLa [6]": {"system": "HeLa", "assay": "Resistance factor, ratio of IC50 for human HeLa cells harboring class 3 beta tubulin mutant to IC50 for human HeLa cells", "type": "functional"}},
  "data": [
    {"smiles": "COc1cc2c(c(OC)c1OC)-c1ccc(NCCO)c(=O)cc1[C@@H](NC(C)=O)CC2", "values": [
      {"measurement": "IC50", "setting": "HeLa [1]", "result": 192, "unit": "nM"},
      {"measurement": "IC50", "setting": "DLD-1", "result": 69.2, "unit": "nM"},
      {"measurement": "IC50", "setting": "HeLa [2]", "result": 164, "unit": "nM"},
      {"measurement": "Ratio IC50", "setting": "A2780 [3]", "result": 3.3},
      {"measurement": "IC50", "setting": "[4]", "result": 241, "unit": "nM"},
      {"measurement": "IC50", "setting": "A2780 [5]", "result": 71.1, "unit": "nM"},
      {"measurement": "Ratio IC50", "setting": "HeLa [6]", "result": 0.85}
    ]},
    {"smiles": "COc1cc2c(c(OC)c1OC)-c1ccc(NCCCCCCN)c(=O)cc1[C@@H](NC(C)=O)CC2", "values": [
      {"measurement": "IC50", "setting": "DLD-1", "result": "> 10000", "unit": "nM"}
    ]},
    {"smiles": "COc1cc2c(c(OC)c1OC)-c1ccc(NCCN)c(=O)cc1[C@@H](NC(C)=O)CC2", "values": [
      {"measurement": "IC50", "setting": "DLD-1", "result": 900, "unit": "nM"}
    ]},
    {"smiles": "COc1cc2c(c(OC)c1OC)-c1ccc(NCCN(C)C(=O)OC(C)(C)C)c(=O)cc1[C@@H](NC(C)=O)CC2", "values": [
      {"measurement": "IC50", "setting": "DLD-1", "result": "> 10000", "unit": "nM"}
    ]},
    {"smiles": "CNCCNc1ccc2c(cc1=O)[C@@H](NC(C)=O)CCc1cc(OC)c(OC)c(OC)c1-2", "values": [
      {"measurement": "IC50", "setting": "HeLa [1]", "result": 586, "unit": "nM"},
      {"measurement": "IC50", "setting": "DLD-1", "result": 130, "unit": "nM"},
      {"measurement": "IC50", "setting": "HeLa [2]", "result": 554, "unit": "nM"},
      {"measurement": "Ratio IC50", "setting": "A2780 [3]", "result": 1.6},
      {"measurement": "IC50", "setting": "[4]", "result": 784, "unit": "nM"},
      {"measurement": "IC50", "setting": "A2780 [5]", "result": 502, "unit": "nM"},
      {"measurement": "Ratio IC50", "setting": "HeLa [6]", "result": 0.95}
    ]},
    {"smiles": "COc1cc2c(c(OC)c1OC)-c1ccc(NCCN3CCC[C@H]3CO)c(=O)cc1[C@@H](NC(C)=O)CC2", "values": [
      {"measurement": "IC50", "setting": "DLD-1", "result": "> 10000", "unit": "nM"}
    ]},
    {"smiles": "COc1cc2c(c(OC)c1OC)-c1ccc(NCCN3CCC[C@@H]3CO)c(=O)cc1[C@@H](NC(C)=O)CC2", "values": [
      {"measurement": "IC50", "setting": "DLD-1", "result": "> 10000", "unit": "nM"}
    ]},
    {"smiles": "COc1cc2c(c(OC)c1OC)-c1ccc(OC)c(=O)cc1[C@@H](NC(C)=O)CC2", "note": "[COLCHICINE]", "values": [
      {"measurement": "IC50", "setting": "HeLa [1]", "result": 8.2, "unit": "nM"},
      {"measurement": "IC50", "setting": "DLD-1", "result": 45.5, "unit": "nM"},
      {"measurement": "IC50", "setting": "HeLa [2]", "result": 9.7, "unit": "nM"},
      {"measurement": "Ratio IC50", "setting": "A2780 [3]", "result": 2.5},
      {"measurement": "IC50", "setting": "[4]", "result": 16.8, "unit": "nM"},
      {"measurement": "IC50", "setting": "A2780 [5]", "result": 6.7, "unit": "nM"},
      {"measurement": "Ratio IC50", "setting": "HeLa [6]", "result": 1.2}
    ]},
    {"smiles": "COc1cc2c(c(OC)c1OC)-c1ccc(NCCN3CCCC(O)C3)c(=O)cc1[C@@H](NC(C)=O)CC2", "note": "(mixture of isomers)", "values": [
      {"measurement": "IC50", "setting": "DLD-1", "result": 8100, "unit": "nM"}
    ]},
    {"smiles": "CC(=O)O[C@H]1C(=O)[C@@]2(C)[C@H]([C@H](OC(=O)c3ccccc3)[C@]3(O)C[C@H](OC(=O)[C@H](O)[C@@H](NC(=O)c4ccccc4)c4ccccc4)C(C)=C1C3(C)C)[C@]1(OC(C)=O)CO[C@@H]1C[C@@H]2O", "note": "[PACLITAXEL]", "values": [
      {"measurement": "IC50", "setting": "HeLa [2]", "result": 11.2, "unit": "nM"},
      {"measurement": "IC50", "setting": "[4]", "result": "> 1000", "unit": "nM"},
      {"measurement": "IC50", "setting": "A2780 [5]", "result": 1100, "unit": "nM"}
    ]},
    {"smiles": "COc1cc2c(c(OC)c1OC)-c1ccc(NCCCCCCN3CCCC(O)C3)c(=O)cc1[C@@H](NC(C)=O)CC2", "note": "(mixture of isomers)", "values": [
      {"measurement": "IC50", "setting": "DLD-1", "result": "> 10000", "unit": "nM"}
    ]}
  ]
}
